For experiment [1], the target named is Human ACC2 (Homo sapiens, UniProt O00763). In words: In vitro ACC2 inhibition assay (ADP-Glo), human ACC2. Particulars: 5 nM ACC2, 20 μM ATP, 20 μM acetyl-CoA. The class given is biochemical. In general terms: ADP-Glo first removes unused ATP, then detects ADP through luciferase.
Experiment [2] has as its system Collectotrichum graminicola (Cg). In words: Growth inhibition assay of fungal pathogens, Cg. The class given is cell-based. Conditions: 48 hours; read-out: Concentration at 90% Inhibition, Cg. The method, boiled down:
(§1)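 Spores in 17% V8 liquid medium were exposed to compound at final 50, 10 and 2 ppm or 2, 0.4 and 0.08 ppm with 2% DMSO. After 48 h, OD600 (blank-subtracted) and visual ratings were compared with the 2% DMSO control to give percent growth inhibition.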

For experiment [3], the system named is Phytophthora capsici (Pc). Description: Growth inhibition assay of fungal pathogens, Pc. Conditions: 48 hours, read-out: Concentration at 90% Inhibition, Pc. The class given is cell-based. The procedure, abridged: as §1
Experiment [4] deals with Fungal ACC2 (UniProt Q00955). Conditions: read-out: Fungal ACC2 (IC50, in vitro ACC2 inhibition).
Sequence of Fungal ACC2 (Q00955 whole entry): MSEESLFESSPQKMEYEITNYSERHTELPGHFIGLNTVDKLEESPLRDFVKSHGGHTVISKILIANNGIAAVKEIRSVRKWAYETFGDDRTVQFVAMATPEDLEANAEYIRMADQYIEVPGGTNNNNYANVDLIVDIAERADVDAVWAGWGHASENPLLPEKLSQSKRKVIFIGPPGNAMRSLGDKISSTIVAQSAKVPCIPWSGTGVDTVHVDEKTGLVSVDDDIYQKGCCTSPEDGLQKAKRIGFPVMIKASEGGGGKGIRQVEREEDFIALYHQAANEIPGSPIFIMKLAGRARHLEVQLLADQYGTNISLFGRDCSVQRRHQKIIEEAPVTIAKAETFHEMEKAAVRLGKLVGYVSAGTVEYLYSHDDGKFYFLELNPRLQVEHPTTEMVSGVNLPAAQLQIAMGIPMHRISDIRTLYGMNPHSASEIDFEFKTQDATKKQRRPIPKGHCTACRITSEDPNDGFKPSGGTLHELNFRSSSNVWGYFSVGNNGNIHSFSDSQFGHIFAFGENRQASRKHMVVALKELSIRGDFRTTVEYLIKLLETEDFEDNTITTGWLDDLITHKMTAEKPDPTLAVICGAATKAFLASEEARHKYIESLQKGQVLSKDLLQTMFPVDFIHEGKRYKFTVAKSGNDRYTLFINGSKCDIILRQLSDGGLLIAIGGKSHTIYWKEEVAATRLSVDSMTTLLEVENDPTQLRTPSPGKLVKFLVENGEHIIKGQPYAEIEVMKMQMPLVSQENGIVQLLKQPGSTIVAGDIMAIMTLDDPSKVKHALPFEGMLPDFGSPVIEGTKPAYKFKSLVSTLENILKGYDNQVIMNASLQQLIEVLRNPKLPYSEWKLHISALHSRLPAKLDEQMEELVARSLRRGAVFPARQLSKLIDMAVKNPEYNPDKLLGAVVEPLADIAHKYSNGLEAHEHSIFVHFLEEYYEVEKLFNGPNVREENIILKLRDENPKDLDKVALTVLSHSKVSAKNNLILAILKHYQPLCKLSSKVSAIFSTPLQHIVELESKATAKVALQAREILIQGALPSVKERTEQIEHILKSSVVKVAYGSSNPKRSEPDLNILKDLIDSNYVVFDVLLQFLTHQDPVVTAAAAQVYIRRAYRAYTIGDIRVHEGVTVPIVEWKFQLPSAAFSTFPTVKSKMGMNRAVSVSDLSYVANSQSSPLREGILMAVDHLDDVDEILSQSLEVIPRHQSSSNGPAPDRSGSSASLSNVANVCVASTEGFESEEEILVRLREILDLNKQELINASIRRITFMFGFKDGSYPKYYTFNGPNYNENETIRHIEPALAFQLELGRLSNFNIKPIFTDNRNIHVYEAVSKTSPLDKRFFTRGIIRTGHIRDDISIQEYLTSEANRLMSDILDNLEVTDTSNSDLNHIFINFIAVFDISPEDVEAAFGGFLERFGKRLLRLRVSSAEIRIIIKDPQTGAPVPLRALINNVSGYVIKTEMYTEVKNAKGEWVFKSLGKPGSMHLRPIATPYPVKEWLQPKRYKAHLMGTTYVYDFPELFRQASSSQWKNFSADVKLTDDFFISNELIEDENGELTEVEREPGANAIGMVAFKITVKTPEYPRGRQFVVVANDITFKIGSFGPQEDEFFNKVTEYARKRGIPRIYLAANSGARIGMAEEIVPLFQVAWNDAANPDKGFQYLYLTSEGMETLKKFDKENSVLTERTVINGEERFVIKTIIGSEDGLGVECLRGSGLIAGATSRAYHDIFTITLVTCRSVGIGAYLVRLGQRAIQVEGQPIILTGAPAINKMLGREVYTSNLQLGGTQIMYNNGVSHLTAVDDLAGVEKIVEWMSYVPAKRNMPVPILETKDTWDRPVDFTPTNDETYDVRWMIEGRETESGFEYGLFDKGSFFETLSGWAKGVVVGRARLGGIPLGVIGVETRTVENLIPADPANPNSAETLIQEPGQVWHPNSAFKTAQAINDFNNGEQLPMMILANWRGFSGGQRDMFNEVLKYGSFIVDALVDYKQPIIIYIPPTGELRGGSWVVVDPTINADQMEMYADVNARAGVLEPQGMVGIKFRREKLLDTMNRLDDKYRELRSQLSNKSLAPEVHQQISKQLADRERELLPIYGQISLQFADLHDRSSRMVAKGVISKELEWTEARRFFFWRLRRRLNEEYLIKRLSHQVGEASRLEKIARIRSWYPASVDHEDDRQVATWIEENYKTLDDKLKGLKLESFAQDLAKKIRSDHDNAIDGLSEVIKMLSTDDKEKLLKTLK
In experiment [5] the test system is Diplodia maydis (Dm). In words: Growth inhibition assay of fungal pathogens, Dm. The class given is cell-based. Particulars: Stenocarpella maydis; 48 hours; read-out: Concentration at 90% Inhibition, Dm. The procedure, abridged:
as §1

For experiment [6], the system named is Septoria tritici (St). In words: Growth inhibition assay of fungal pathogens, St. The class given is cell-based. Conditions: Zymoseptoria tritici; 48 hours; read-out: Concentration at 90% Inhibition, St. The method, boiled down: as §1
Experiment [7] deals with C. albicans ATCC 90028. In words: Anti-Fungal Activity Assay (broth microtiter MIC), C. albicans. The class given is cell-based, Candida albicans. Particulars: Candida albicans, ATCC90028, 48 h, 3 replicates; MIC recorded at 48 h; read-out: MIC C. albicans ATCC 90028. The method, boiled down:
(§2)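 MIC taken as visual growth inhibition versus the growth control, mostly at 48 h (soraphen also at 24 h). Following CLSI M27-A3, colonies grown overnight at 35° C on Sabouraud dextrose agar were suspended in RPMI 1640+MOPS; test agents came from 1 mg/mL DMSO stocks.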

The subject of experiment [8] is Blumeria graminis f sp. hordei. Description: Foliar protection test, barley powdery mildew control. The class given is in vivo, Blumeria graminis f sp. hordei on Hordeum vulgare cv. Perry. Particulars: 168 h, compound concentration 50 ppm, foliar spray, evaluated 7 days after inoculation, read-out: Barley Powdery Mildew Control at 50 ppm. The method, then: Compounds of the present invention were evaluated in a foliar protection test to determine the ability to control barley powdery mildew. Plants (Hordeum vulgare cv. Perry) were grown for 6 days in 2-inch square pots containing Metromix 200 medium amended with fertilizer. For propagation, plants were maintained in a growth chamber at conditions of 20 to 21° C., 16 hour light cycle, 400 uM of light, 70% humidity, and with sub-irrigation as needed. After inoculation with the pathogen of Blumeria graminis f sp. hordei, plants were kept at conditions of 20 to 22° C., 70% relative humidity, and 200 uM of light to facilitate infection and disease development. At 6 days after planting (1st true leaf fully expanded), the test compounds were dissolved in a solution of 5% acetone and 0.005% Tween 80 surfactant. An atomizer was used for applying the solution onto both sides of the leaves until thoroughly wetted. The amount of the compound applied to the leaves was typically 200, 100, 50, 10, or 2 ppm, but it may vary. At 24 hours after treatment, the plants were moved to a cooler chamber and inoculated by shaking well-colonized, untreated stock plants above the treated plants. This allowed producing a settling cloud of spores and resulting in uniform infection. Efficacy was evaluated in 7 days later by examining leaves for colonization and growth of mildew. Table 5 lists the results of barley powdery mildew control at a compound concentration of 50 ppm or 10 ppm. Compounds having an activity designated as “AA” provided a compound having >85% control of barley powdery mildew; compounds having an activity designated as “A” provided a compound having from 70% to 84% control of barley powdery mildew; compounds having an activity designated as “B” provided a compound having from 50 to 69% control of barley powdery mildew; compounds having an activity designated as “C” provided a compound having from 25 to 49% control of barley powdery mildew; and compounds having an activity designated as “D” provided a compound having <25% control of barley powdery mildew.

Experiment [9] relates to Fusarium virguliforme (Fv). In words: Growth inhibition assay of fungal pathogens, Fv. The class given is cell-based. Particulars: 48 hours, read-out: Concentration at 90% Inhibition, Fv. The procedure, abridged:
as §1

Experiment [10] relates to C. parapsilosis ATCC 22019. In words: Anti-Fungal Activity Assay (broth microtiter MIC), C. parapsilosis. The class given is cell-based, Candida parapsilosis. Particulars: Lodderomyces parapsilosis, ATCC22019, 48 h, 3 replicates; MIC recorded at 48 h; read-out: MIC C. parapsilosis ATCC 22019. The procedure, abridged: as §2
For experiment [11] the following is noted: compound concentration 10 ppm, foliar spray, evaluated 7 days after inoculation.
Experiment [12] concerns Fusarium moniliforme (Fm). Description: Growth inhibition assay of fungal pathogens, Fm. Conditions: Fusarium verticillioides; 48 hours; read-out: Concentration at 90% Inhibition, Fm. The class given is cell-based. The method, boiled down: as §1
The test system of experiment [13] is C. krusei ATCC 6258. In words: Anti-Fungal Activity Assay (broth microtiter MIC), C. krusei. Particulars: Pichia kudriavzevii, ATCC6258, 48 h, 3 replicates; MIC recorded at 48 h; read-out: MIC C. krusei ATCC 6258. The class given is cell-based, Candida krusei. The method, boiled down: as §2
In experiment [14] the test system is Rhizoctonia solani (Rs). Description: Growth inhibition assay of fungal pathogens, Rs. The class given is cell-based. Particulars: 48 hours, read-out: Concentration at 90% Inhibition, Rs.
Experiment [15] concerns Botrtyis cinerea (Bc). In words: Growth inhibition assay of fungal pathogens, Bc. The class given is cell-based. Particulars: 48 hours; read-out: Concentration at 90% Inhibition, Bc. The procedure, abridged: as §1

Converted amounts (≈) assume the structure as drawn. Where only a bound is given, the exact number is not on record here.

Sequence of Human ACC2 (O00763 whole entry): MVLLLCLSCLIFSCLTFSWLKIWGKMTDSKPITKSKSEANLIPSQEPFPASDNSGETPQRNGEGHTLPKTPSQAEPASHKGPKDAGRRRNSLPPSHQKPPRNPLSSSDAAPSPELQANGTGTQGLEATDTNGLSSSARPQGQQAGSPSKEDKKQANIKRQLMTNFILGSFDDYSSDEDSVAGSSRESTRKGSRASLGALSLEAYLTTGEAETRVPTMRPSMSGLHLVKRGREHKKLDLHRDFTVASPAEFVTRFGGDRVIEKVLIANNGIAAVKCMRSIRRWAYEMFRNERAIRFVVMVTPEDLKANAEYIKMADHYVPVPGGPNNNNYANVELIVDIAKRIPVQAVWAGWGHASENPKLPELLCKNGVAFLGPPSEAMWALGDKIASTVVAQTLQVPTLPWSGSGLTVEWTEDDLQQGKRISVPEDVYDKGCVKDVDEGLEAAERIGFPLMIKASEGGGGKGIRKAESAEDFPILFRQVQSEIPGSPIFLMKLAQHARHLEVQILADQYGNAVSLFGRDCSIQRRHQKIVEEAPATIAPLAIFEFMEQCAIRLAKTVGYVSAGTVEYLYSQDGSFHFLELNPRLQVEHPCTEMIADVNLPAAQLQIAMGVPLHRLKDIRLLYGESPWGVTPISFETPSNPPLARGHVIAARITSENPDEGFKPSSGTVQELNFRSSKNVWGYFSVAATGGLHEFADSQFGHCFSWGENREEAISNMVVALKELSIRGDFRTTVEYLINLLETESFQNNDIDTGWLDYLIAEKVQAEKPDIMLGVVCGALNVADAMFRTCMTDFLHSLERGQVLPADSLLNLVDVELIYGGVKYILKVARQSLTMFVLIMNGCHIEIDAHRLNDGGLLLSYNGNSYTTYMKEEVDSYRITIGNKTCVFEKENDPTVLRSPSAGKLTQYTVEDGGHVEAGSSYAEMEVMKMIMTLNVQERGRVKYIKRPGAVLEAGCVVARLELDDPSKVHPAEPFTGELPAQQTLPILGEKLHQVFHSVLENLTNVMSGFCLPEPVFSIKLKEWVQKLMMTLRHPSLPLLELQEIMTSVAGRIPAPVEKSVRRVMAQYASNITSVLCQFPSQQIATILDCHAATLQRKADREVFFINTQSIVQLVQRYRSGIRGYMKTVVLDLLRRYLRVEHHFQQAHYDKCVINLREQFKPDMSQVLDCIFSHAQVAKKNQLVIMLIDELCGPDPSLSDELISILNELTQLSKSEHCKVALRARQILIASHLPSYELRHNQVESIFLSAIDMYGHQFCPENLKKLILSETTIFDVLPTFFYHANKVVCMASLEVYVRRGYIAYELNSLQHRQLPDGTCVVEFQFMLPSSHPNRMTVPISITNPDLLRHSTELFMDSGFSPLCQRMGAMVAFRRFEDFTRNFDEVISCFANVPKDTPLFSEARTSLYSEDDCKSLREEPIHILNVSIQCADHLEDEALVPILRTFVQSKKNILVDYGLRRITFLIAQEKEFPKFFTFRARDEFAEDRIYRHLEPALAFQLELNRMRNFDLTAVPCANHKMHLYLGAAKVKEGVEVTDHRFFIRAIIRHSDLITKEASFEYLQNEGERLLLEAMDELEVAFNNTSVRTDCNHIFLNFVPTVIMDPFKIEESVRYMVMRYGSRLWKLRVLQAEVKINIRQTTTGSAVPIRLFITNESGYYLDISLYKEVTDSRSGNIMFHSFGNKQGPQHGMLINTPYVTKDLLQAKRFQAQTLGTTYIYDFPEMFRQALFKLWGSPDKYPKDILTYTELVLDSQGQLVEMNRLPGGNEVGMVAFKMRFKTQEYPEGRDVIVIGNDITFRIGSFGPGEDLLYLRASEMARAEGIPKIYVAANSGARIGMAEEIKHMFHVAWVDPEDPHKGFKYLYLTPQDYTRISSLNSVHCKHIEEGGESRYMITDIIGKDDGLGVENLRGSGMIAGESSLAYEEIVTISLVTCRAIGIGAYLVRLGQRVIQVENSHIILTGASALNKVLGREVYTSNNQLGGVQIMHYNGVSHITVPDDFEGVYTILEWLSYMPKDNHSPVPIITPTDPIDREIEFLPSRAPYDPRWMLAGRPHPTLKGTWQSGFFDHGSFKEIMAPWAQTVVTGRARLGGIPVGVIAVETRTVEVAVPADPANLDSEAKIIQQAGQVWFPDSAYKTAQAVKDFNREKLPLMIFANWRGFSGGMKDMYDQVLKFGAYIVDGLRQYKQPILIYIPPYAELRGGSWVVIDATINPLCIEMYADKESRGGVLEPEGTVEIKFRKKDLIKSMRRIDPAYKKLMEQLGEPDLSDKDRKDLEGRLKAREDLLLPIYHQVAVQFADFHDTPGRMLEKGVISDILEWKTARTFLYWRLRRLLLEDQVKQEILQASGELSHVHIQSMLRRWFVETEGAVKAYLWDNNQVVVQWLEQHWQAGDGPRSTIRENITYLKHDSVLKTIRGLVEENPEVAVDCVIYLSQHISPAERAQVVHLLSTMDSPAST

Take `COc1ccc(F)cc1[C@H](Cn1c(=O)n([C@H]2CCCNC2=O)c(=O)c2c(C)c(-n3nccn3)sc21)OCCC#N` [Compound I-110, 3-((R)-1-(5-fluoro-2-methoxyphenyl)-2-(5-methyl-2,4-dioxo-3-((S)-2-oxopiperidin-3-yl)-6-(2H-1,2,3-triazol-2-yl)-3,4-dihydrothieno[2,3-d]pyrimidin-1 (2H)-yl)ethoxy)propanenitrile]: the IC50 in experiment [1] is 0.01 to 0.1 µM; in [4], 0.0007 to 0.002 µM. Moreover, the IC90 in experiment [2] is 10 mg/L (≈ 17.6 µM); in [3], over 50 mg/L; in experiment [5] it was over 50 mg/L; in [6], over 50 mg/L; in experiment [9], 10 mg/L (≈ 17.6 µM); in experiment [12], 2 mg/L (≈ 3.52 µM). For the same compound, the IC90 in [14] and in experiment [15] was 2 mg/L (≈ 3.52 µM) each time. The MIC in [7], in [10] and in [13] was 2.1 to 4 mg/L (≈ 3.7 to 7.05 µM) each time. For the same compound, the pest or weed control at 50 ppm in experiment [8] fell in the range of 50 to 69%. In addition, the “Barley Powdery Mildew Control at 10 ppm” value in experiment [11] is reported as “D (provided a compound having <25% control of barley powdery mildew)”.

Take `COCCO[C@@H](Cn1c(=O)n([C@H]2CCCNC2=O)c(=O)c2c(C)c(-n3cccn3)sc21)c1cc(F)ccc1OC` [Compound I-45, 1-((R)-2-(5-fluoro-2-methoxyphenyl)-2-(2-methoxy-ethoxy)ethyl)-5-methyl-3-((S)-2-oxopiperidin-3-yl)-6-(I H-pyrazol-1-yl)thieno[2,3-d]pyrimidine-2,4(1H,3H)-dione]: the concentration for half-maximal inhibition (IC50) was 0.01 to 0.1 µM in experiment [1] and 0.002 to 0.01 µM in experiment [4]. Also, the IC90 in [2], in experiment [3], in experiment [5], in [6], in [9] and in experiment [12] was over 50 mg/L throughout. Also, the IC90 in experiment [14] and in experiment [15] was over 50 mg/L each time. Moreover, the MIC in experiment [7], in experiment [10] and in experiment [13] was 2.1 to 4 mg/L (≈ 3.67 to 7 µM) in each case. Besides, in [8], the pest or weed control at 50 ppm fell in the range of 50 to 69%. Further, the “Barley Powdery Mildew Control at 10 ppm” value in experiment [11] was “D (provided a compound having <25% control of barley powdery mildew)”.

As to `COCCO[C@@H](Cn1c(=O)n([C@H]2CCN(C)C2=O)c(=O)c2c(C)c(-n3nccn3)sc21)c1cc(F)ccc1OC` [Compound I-27, 1-((R)-2-(5-fluoro-2-methoxyphenyl)-2-(2-methoxy-ethoxy)ethyl)-5-methyl-3-((S)-1-methyl-2-oxopyrrolidin-3-yl)-6-(2H-1,2,3-triazol-2-yl)thieno[2,3-d]pyrimidine-2,4(1H,3H)-dione], the IC50 in [1] lay in the range of 0.01 to 0.1 µM; in [4], 0.002 to 0.01 µM. Also, the IC90 was over 50 mg/L in experiment [2]; over 50 mg/L in experiment [3]; over 50 mg/L in experiment [5]; over 50 mg/L in experiment [6]; 10 mg/L (≈ 17.5 µM) in experiment [9]; 2 mg/L (≈ 3.49 µM) in experiment [12]. Besides, the IC90 was over 50 mg/L in experiment [14] and 2 mg/L (≈ 3.49 µM) in [15]. The MIC in experiment [7], in experiment [10] and in [13] was 2.1 to 4 mg/L (≈ 3.67 to 6.99 µM) each time. For the same compound, in [8], the pest or weed control at 50 ppm lay in the range of 50 to 69%. Moreover, in experiment [11], the “Barley Powdery Mildew Control at 10 ppm” value is given as “D (provided a compound having <25% control of barley powdery mildew)”.

In the case of `COc1ccc(F)cc1[C@H](Cn1c(=O)n([C@@H]2CCNC2=O)c(=O)c2c(C)c(-n3nccn3)sc21)OCCO` [Compound I-81, 1-((R)-2-(5-fluoro-2-methoxyphenyl)-2-(2-hydroxy-ethoxy)ethyl)-5-methyl-3-((R)-2-oxopyrrolidin-3-yl)-6-(2H-1,2,3-triazol-2-yl)thieno[2,3-d]pyrimidine-2,4(1H,3H)-dione], the values for the half-inhibitory concentration (IC50) in [1] and in experiment [4] were 0.002 to 0.01 µM and 0.0007 to 0.002 µM, respectively. The IC90 in experiment [2] was 10 mg/L (≈ 18.4 µM); in experiment [3], 10 mg/L (≈ 18.4 µM); in [5], 10 mg/L (≈ 18.4 µM); in experiment [6] it was over 50 mg/L; in [9] it was 2 mg/L (≈ 3.67 µM); in [12] it was 2 mg/L (≈ 3.67 µM). Further, the IC90 in experiment [14] worked out at 10 mg/L (≈ 18.4 µM); in [15] it was 2 mg/L (≈ 3.67 µM). In addition, in experiment [8], the pest or weed control at 50 ppm is 25 to 49%. For the same compound, in experiment [11], the “Barley Powdery Mildew Control at 10 ppm” value is on record as “D (provided a compound having <25% control of barley powdery mildew)”.

On to `COCCO[C@@H](Cn1c(=O)n([C@H]2CCNC2=O)c(=O)c2c(C)c(-n3cccn3)sc21)c1cc(F)ccc1OC` [Compound I-41, 1-((R)-2-(5-fluoro-2-methoxyphenyl)-2-(2-methoxy-ethoxy)ethyl)-5-methyl-3-((S)-2-oxopyrrolidin-3-yl)-6-(I H-pyrazol-1-yl)thieno[2,3-d]pyrimidine-2,4(1H,3H)-dione], for which the IC90 in experiment [2], in [3], in [5], in experiment [6], in experiment [9] and in [12] was over 50 mg/L throughout. Further, the IC90 in [14] and in experiment [15] was over 50 mg/L each time. The IC50 in experiment [4] fell in the range of 0.01 to 0.1 µM. Besides, the MIC in [7], in experiment [10] and in experiment [13] was 2.1 to 4 mg/L (≈ 3.77 to 7.17 µM) throughout. The pest or weed control at 50 ppm in experiment [8] lay within 25 to 49%. In experiment [11], the “Barley Powdery Mildew Control at 10 ppm” value is given as “D (provided a compound having <25% control of barley powdery mildew)”.

With `COCCO[C@@H](Cn1c(=O)n([C@H]2CCN(C)C2=O)c(=O)c2c(C)c(-n3cccn3)sc21)c1cc(F)ccc1OC` [Compound I-43, 1-((R)-2-(5-fluoro-2-methoxyphenyl)-2-(2-methoxy-ethoxy)ethyl)-5-methyl-3-((S)-1-methyl-2-oxopyrrolidin-3-yl)-6-(1H-pyrazol-1-yl)thieno[2,3-d]pyrimidine-2,4(1H,3H)-dione], the IC90 in experiment [2], in [3], in experiment [5], in experiment [6], in [9] and in experiment [12] was over 50 mg/L each time. Also, the IC90 in experiment [14] and in [15] was over 50 mg/L in each case. Further, the IC50 in experiment [4] was in the range of 0.01 to 0.1 µM. For the same compound, the minimum inhibitory concentration (MIC) in experiment [7], in experiment [10] and in [13] was 2.1 to 4 mg/L (≈ 3.67 to 7 µM) in each case. Besides, the pest or weed control at 50 ppm in experiment [8] is 70 to 84%. Besides, the “Barley Powdery Mildew Control at 10 ppm” value in experiment [11] is “D (provided a compound having <25% control of barley powdery mildew)”.

For orientation: IC50 means the concentration needed to halve the response being measured. One may read the MIC as the lowest concentration found to suppress growth.

Values taken from US20190330224A1, “ACC INHIBITORS AND USES THEREOF” (Gilead Apollo, LLC, priority 2015, published 2019).
